Reference: paper PMC9404792, “Synthesis and Antioxidant Properties of HeteroBisNitrones Derived from Benzene Dicarbaldehydes” (Antioxidants, 2022)

Molecular target: T1, soybean lipoxygenase (LOX) (Glycine max, UniProt P08170)
T1 construct: gene LOX1.1
T1 sequence (P08170 1-839): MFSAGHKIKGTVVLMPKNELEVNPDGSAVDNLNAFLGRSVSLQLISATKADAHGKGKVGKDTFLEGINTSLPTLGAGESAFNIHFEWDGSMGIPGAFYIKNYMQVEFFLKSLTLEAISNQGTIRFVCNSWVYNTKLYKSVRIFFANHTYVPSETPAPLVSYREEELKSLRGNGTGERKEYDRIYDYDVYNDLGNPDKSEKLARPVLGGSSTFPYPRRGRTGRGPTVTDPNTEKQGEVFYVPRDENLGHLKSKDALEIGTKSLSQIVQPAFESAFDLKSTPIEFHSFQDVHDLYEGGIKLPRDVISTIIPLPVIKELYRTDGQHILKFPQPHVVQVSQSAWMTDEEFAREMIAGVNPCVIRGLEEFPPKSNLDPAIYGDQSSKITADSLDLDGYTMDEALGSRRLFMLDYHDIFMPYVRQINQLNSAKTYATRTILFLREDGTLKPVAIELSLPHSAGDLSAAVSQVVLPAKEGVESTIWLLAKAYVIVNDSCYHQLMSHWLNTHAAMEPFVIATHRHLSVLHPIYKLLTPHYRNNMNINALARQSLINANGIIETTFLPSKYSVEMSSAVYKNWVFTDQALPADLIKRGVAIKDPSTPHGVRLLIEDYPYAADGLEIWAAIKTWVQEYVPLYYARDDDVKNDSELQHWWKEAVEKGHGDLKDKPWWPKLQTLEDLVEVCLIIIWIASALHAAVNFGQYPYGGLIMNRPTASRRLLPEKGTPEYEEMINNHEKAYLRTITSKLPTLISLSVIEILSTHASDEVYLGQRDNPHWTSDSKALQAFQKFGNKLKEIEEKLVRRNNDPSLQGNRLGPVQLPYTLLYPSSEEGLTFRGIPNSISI
Experiment: UV assay at […] nm of sodium linoleate conversion to 13-hydroperoxylinoleic acid
Assay type: biochemical
Settings: read-out: LOX Inhibition (% or IC50 [μM])

| IC50 [µM] | SMILES |
| --- | --- |
| 82.5 | C/[N+]([O-])=C/c1ccccc1/C=[N+](\[O-])Cc1ccccc1 [hBN8, (Z)-N-Benzyl-1-(2-((Z)-(methyloxidoazaneylidene)methyl)phenyl)methanimine oxide] |
| 57.5 | CC(C)(C)/[N+]([O-])=C/c1ccccc1/C=[N+](\[O-])Cc1ccccc1 [hBN9, (Z)-N-Benzyl-1-(2-((Z)-(tert-butyloxidoazaneylidene)methyl)phenyl)methanimine oxide] |
